Structures are written as SMILES. Bounds are passed on as bounds.

The data set in a line: solubility measurement in purified water and ethanol. Conditions: for density up to which dissolved: 25° C.

In the case of `O=C(O)/C=C/c1ccc(O)c(O)c1` [caffeic acid], the solubility result is recorded as “dissolved” (ethanol (25° C.), density 1 mg/mL); “dissolved” (ethanol (25° C.), density 10 mg/mL); “not dissolved” (ethanol (25° C.), density 100 mg/mL); “not dissolved” (purified water (25° C.), density 1 mg/mL); “not dissolved” (purified water (25° C.), density 10 mg/mL); “not dissolved” (purified water (25° C.), density 100 mg/mL). The “density up to which dissolved” value was at least 10 mg/mL (ethanol) and “not dissolved” (purified water).

(Values after US7750031B2, “Caffeic acid derivative and composition containing the same” (Thefaceshop Korea Co., Ltd., priority 2007, dated 2010).)
